Results: patent US10494333B2, “Compound having BLT inhibitory activity and composition, for preventing or treating inflammatory diseases, comprising same as active ingredient” (DONGGUK UNIVERSITY INDUSTRY-ACADEMIC COOPERATION FOUNDATION, priority 2015, dated 2019)

Legend:
[1] = tested on: ovarian cancer cells (SKOV-3 cells); assay: Death of anticancer agent-resistant ovarian cancer cells on co-treatment with cisplatin (MTT); assay type: cell-based; conditions: 10 μM pre-treated 30 minutes, cisplatin 50 μM, 24 hours, LY255283 compared to cisplatin alone, AC compounds compared with LY255283 co-treatment
Procedure: The death of cancer cells was detected using a 3-(4,5-dimethylthiazol-2-yl)-2,5-diphenyltetrazolium bromide (MTT) method. More specifically, 1×10^5 of the ovarian cancer cells (SKOV-3 cells) resistant to the anti-cancer agents were dispensed on a 12-well culture dish, and cultured for 24 hours. A 0.5% serum RPMI medium was pre-treated with each of the compound prepared in one of the examples (10 μM), 10 μM of DMSO (compound solvent) as a control, and 10 μM of LY255283 as a positive control for 30 minutes. Afterward, 50 μM of an anti-cancer agent, cisplatin, was treated, and then the cells were cultured 24 hours. A 20 μL of an MTT solution (5 mg/mL, Sigma-Aldrich) was added to each well, and the cells were cultured in a humid CO2 incubator at 37° C. for 4 hours. Afterward, the supernatant was removed, and 500 µL of DMSO was added to each well to dissolve insoluble violet formazan crystals. Absorbance was measured using a microplate reader (Molecular Devices, Sunnyvale, Calif.) at 550 nm, and the measurement was repeated three times.

[2] = tested on: BLT2-expressing cells (CHO-BLT2 cells); assay: LPA-induced chemotactic motility of CHO-BLT2 cells (Transwell); assay type: cell-based; conditions: LPA 100 nM
Procedure: Chemotactic motility was analyzed using a Transwell chamber including a polycarbonate filter (8-μm pore size, Corning Costar) with a 6.5-mm diameter. […] To evaluate the effect of inhibitors, the cells were pre-treated with each inhibitor for 30 minutes before dispensing. After the cells were cultured at 37° C. in 5% CO2 for 3 hours, the filters were fixed with methanol for 3 minutes, and stained with hematoxylin and eosin for 10 minutes. […] The chemotactic motility was quantitatively analyzed by counting the cells on the lower side of the filter under an optical microscope (magnification, 200×). For each analysis, 6 fields were subjected to counting, each sample was analyzed twice, and the analysis was repeated three times.

BLT2 [3] = target: T1, BLT2 (Homo sapiens, UniProt Q9NPC1); assay: biochemical
T1 sequence (Q9NPC1 with tags, fused parts or gaps): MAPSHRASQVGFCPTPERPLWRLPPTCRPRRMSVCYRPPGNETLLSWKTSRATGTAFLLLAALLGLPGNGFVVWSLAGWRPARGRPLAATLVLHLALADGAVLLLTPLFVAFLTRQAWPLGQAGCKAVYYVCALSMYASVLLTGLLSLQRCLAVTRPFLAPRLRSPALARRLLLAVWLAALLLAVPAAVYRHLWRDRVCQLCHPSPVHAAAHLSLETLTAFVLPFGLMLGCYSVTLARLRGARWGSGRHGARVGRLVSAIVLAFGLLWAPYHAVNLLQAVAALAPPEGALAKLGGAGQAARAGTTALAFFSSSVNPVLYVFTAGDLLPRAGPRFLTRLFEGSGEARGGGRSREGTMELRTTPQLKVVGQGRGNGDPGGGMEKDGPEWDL
Procedure: (§1) In addition, in order to prepare stable CHO/BLT2 clones, CHO-K1 cells were transformed with pcDNA3-long form BLT2 encoding HA-tagged human BLT2, and selected with 0.4 mg/ml of G418 (Invitrogen, Carlsbad, Calif., USA).

asthma-induced mice = assay: Airway hyperresponsiveness (AHR) in OVA asthma-induced mice; assay type: in vivo
Text: (§2) Mast cells play a pivotal role in the initial reaction to asthma, and when an allergen enters the body from the outside through an airway, the mast cells are activated, thereby secreting various cytokines (interleukin-4 and interleukin-13). Due to the cytokines, the influx of inflammatory cells, and the generation of mucus and the airway contraction occur. The inventors used 7-week-old (18 to 20 g) female BALB/c mice provided by Orient (Seoungnam, Korea) for the experiment to confirm the anti-asthma effect, and asthma was induced in the mice. On day 1 and day 14, 2.5 mg of an adjuvant aluminum hydroxide gel (alum; Pierce, Rockford, Ill.) containing a […] of ovalbumin (OVA) was injected intraperitoneally to sensitize the female […] mice. After the two initial sensitizations, on day 21, day 22 and day 23, 1% OVA was sprayed into the mice using an ultrasonic nebulizer. […] After the initial sensitizations, on day 24, AHR was detected, and on day 25, the mice were dissected to observe asthma phenotypes such as the expression of an inflammatory cytokine IL-4, and the influx of the inflammatory cells (neutrophils). In addition, the AHR detection was performed after an airway constrictor methacholine (6.25 to 50 mg/ml depending on conditions) was administered to the mice. The administration of the airway constrictor was performed by spraying through an inlet of the chamber using an ultrasonic nebulizer for 3 minutes. The AHR was analyzed using an enhanced pause as the indicator of the asthma phenomenon.

interleukin-4 (IL-4) = assay: IL-4 production in severely asthma-induced mice; assay type: in vivo; conditions: severely asthma-induced mice (FIG. 8), cells separated from the abdominal cavity, pre-treated (method 5 mg/kg intraperitoneally)
Text: as §2, with “The administration of the airway constrictor was performed by spraying through an inlet of the chamber using an ultrasonic nebulizer for 3 minutes.” left out

BLT1 = target: T2, BLT1 (Homo sapiens, UniProt Q15722); assay: LTB4-induced chemotactic motility of BLT1-expressing cells (Transwell); assay type: cell-based; conditions: CHO-BLT1 cells, LTB4 10 nM
T2 construct: expressed in transfected cells; host or cells: CHO cells (CHO-BLT1)
Procedure: (§3) Chemotactic motility was analyzed using a Transwell chamber including a polycarbonate filter (8-μm pore size, Corning Costar) with a 6.5-mm diameter. Specifically, the lower surface of the filter was coated with 10 μg/mL fibronectin in a serum-free RPMI 1640 medium at 37° C. for 1 hour. The experiment was performed by placing the filter dried and coated with RPMI 1640 media containing various amounts of LTB4 in the lower wells of the Transwell chamber, and loading CHO cells, which stably express both BLT1 and BLT2, into the upper wells containing serum-free RPMI 1640 media finally at 2×10^4 cells/100 μL. To evaluate the effect of inhibitors, the cells were pre-treated with each inhibitor for 30 minutes before dispensing. After the cells were cultured at 37° C. in 5% CO2 for 3 hours, the filters were fixed with methanol for 3 minutes, and stained with hematoxylin and eosin for 10 minutes. […] The chemotactic motility was quantitatively analyzed by counting the cells on the lower side of the filter under an optical microscope (magnification, 200×). For each analysis, 6 fields were subjected to counting, each sample was analyzed twice, and the analysis was repeated three times.

[4] = tested on: BLT2-expressing cells (CHO-BLT2 cells); assay: Inhibition of LTB4-induced growth of BLT2-expressing cells (MTT); assay type: cell-based, human; conditions: LTB4 300 nM, 24 hours
Procedure: Cell viability according to treatment of the compounds prepared in the examples were measured by a 3-(4,5-dimethylthiazol-2-yl)-2,5-diphenyltetrazolium bromide (MTT) method.
More specifically, 1×10^4 each of the BLT2-nonexpressing cells (CHO-pcDNA3.1 cells) and BLT2-expressing cells (CHO-BLT2 cells), which were prepared in Experimental Example 1, were dispensed in a […], and cultured for 24 hours. Afterward, the culture medium was removed, a serum-free RPMI medium was added, and after two hours, the cells were pre-treated with each of the compound prepared in one of the examples (10 μM), 10 μM DMSO (compound solvent) as a control, and 10 μM of 1-[5-ethyl-2-hydroxy-4-[[6-methyl-6-(1H-tetrazol-5-yl)heptyl]oxy]phenyl]-ethanone (LY255283; Cayman) as a positive control for 1 hour. Subsequently, after treatment of LTB4 (300 nM), the cells were cultured for 24 hours. 20 μL of an MTT solution (5 mg/mL, Sigma-Aldrich) was added to each well, the cells were cultured in a humid CO2 incubator at 37° C. for 4 hours, and then the supernatant was removed, and 200 μL of DMSO was added to each well to dissolve insoluble violet formazan crystals. Absorbance was measured using a microplate reader (Molecular Devices, Sunnyvale, Calif.) at 550 nm, and the measurement was repeated three times.

BLT2 [5] = target: T1, BLT2; assay: LTB4-induced BLT2-dependent chemotactic motility (Transwell); assay type: cell-based; parameters: expressed in transfected cells; conditions: CHO-BLT2 cells, LTB4 300 nM
Procedure: as §1, §3

[6] = severely asthma-induced mice (FIG. 7), airway constrictor 50 mg/ml, pre-treated (method 5 mg/kg intraperitoneally)

T2 sequence (Q15722 whole entry, species assumed): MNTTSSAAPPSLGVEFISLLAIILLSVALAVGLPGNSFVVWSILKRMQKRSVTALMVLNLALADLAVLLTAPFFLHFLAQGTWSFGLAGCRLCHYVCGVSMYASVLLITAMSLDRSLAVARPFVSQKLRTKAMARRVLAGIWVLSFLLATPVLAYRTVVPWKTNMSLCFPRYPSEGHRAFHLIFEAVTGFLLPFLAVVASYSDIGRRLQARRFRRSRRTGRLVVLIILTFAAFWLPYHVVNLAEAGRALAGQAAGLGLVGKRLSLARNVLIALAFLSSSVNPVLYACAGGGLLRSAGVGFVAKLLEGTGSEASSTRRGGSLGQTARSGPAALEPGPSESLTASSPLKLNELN

For `CCCCC(=O)N(Cc1ccc(-c2ccc(O)cc2)cc1)c1cccc(F)c1` [AC-1070, N-(3-fluorophenyl)-N-((4′-hydroxybiphenyl-4-yl)methyl)pentaneamide], the “death of cancer cells on co-treatment with cisplatin” value (from here on “death of cancer cells”) [1] was “highly increase”.
In the case of `CCCCC(=O)N(Cc1ccc(-c2ccc(C(=O)O)cc2)cc1)c1ccc(F)cc1` [AC-1072, 4′-((N-(4-fluorophenyl)pentaneamido)methyl)biphenyl-4-carboxylic acid], the “death of cancer cells” value [1] is reported as “highly increase”.
`CCCCC(=O)N(Cc1ccc(-c2ccc(OCC(=O)O)cc2)cc1)c1ccccc1` [AC-1073, 2-(4′-((N-phenylpentaneamido)methyl)biphenyl-4-yloxy)acetic acid] was tested, and the “death of cancer cells” value [1] was “highly increase”.
In the case of `CCCCC(=O)N(Cc1ccc(-c2ccc(OCC(=O)O)cc2)cc1)c1cccc(F)c1` [AC-1074, 2-(4′-((N-(3-fluorophenyl)pentaneamido)methyl)biphenyl-4-yloxy)acetic acid], the “change in chemotactic motility compared with LPA (DMSO+)” value ([2]; 10 μM pre-treatment) is reported as “no change”, the IC50 (BLT2 [3]) is reported as 0.14 µM and the AHR reduced (asthma-induced mice; asthma-induced mice (FIG. 6), airway constrictor methacholine 50 mg/ml, pre-treated (printed 10 μM; method 5 mg/kg intraperitoneally)) is reported as 42%. The AHR reduced (asthma-induced mice; [6]) was 59%, the “production of IL-4 reduced” value (interleukin-4 (IL-4)) was 35.5% and the “change in chemotactic motility compared with LTB4 (DMSO+)” value (BLT1; 10 μM pre-treatment) was “no change”. The “death of cancer cells” value [1] was “highly increase”.
In the case of `CCCCC(=O)N(Cc1ccc(-c2ccc(OC)cc2)cc1)c1cccc(F)c1` [AC-1646, N-(3-fluorophenyl)-N-((4′-methoxybiphenyl-4-yl)methyl) pentaneamide], the growth inhibitory effect ([4]; compound 10 μM pre-treated 1 hour) is reported as 72.1%.
In the case of `CCCCC/C=C\C[C@@H](O)/C=C/C=C/C=C\[C@@H](O)CCCC(=O)O` [LTB4, leukotriene B4, reference compound], the “chemotactic motility increase compared with ethanol (DMSO−)” value (“chemotactic motility increase” below) (BLT2 [5]) is reported as 2.9 times and the “chemotactic motility increase” value (BLT1) is reported as 2.8 times.
With `CCc1cc(C(C)=O)c(O)cc1OCCCCCC(C)(C)c1nnn[nH]1` [LY255283, 1-[5-ethyl-2-hydroxy-4-[[6-methyl-6-(1H-tetrazol-5-yl)heptyl]oxy]phenyl]-ethanone, reference compound] the “cell growth compared with control DMSO” value ([4]; pre-treated with 10 μM) was “approximately 90%”, the AHR reduced (asthma-induced mice; [6]) was 69.2% and the “production of IL-4 reduced” value (interleukin-4 (IL-4)) was 67.2%. For the same compound, the “chemotactic motility compared with those treated with the ligand LTB4” value (BLT2 [5]; 10 μM pre-treatment) was 90% and the “death of cancer cells” value [1] was “increased”.
“lysophosphatidic acid [LPA, reference compound]” was tested, and the “chemotactic motility increase” value [2] was 3.4 times.
